Activity calls are given as the source filed them. The rule behind the calls is not given here.
What was measured:
[1] = Toxicity in C57 mouse assessed as effect on liver morphology at 5 to 10 mg/kg administered continuously for 2 weeks by H and E staining based analysis; assay type: organism-based; conditions: in vivo, 336 h, dose 5-10 mg/kg
[2] = system: Mus musculus; test: Upregulation of 5-HT level in mouse at 10 mg/kg; assay type: functional, organism-based
[3] = system: Mus musculus; test: Antidepressant activity in chronic unpredictable mild stress induced depressive C57 mouse model assessed as increase in body weight at 5 to 10 mg/kg administered continuously for 2 weeks post 5 weeks of chronic unpredictable mild stress; assay type: functional, organism-based; conditions: dose 5-10 mg/kg
[4] = system: Danio rerio; test: Antidepressant activity in reserpine-induced depressive zebrafish model assessed as increase in speed of movement at 0.5 to 1 uM preadministered with reserpine for 40 mins followed by compound administration and measured after 7 days by novel tank test; assay type: functional, organism-based; conditions: dose 0.5-1 µM, time 7.0 day
[5] = system: Mus musculus; test: Antidepressant activity in chronic unpredictable mild stress induced depressive C57 mouse model assessed as increase in number of upright movements at 5 to 10 mg/kg administered continuously for 2 weeks post 5 weeks of chronic unpredictable mild stress by open field test; assay type: functional, organism-based; conditions: dose 5-10 mg/kg
[6] = system: Danio rerio; test: Antidepressant activity in reserpine-induced depressive zebrafish model assessed as increase in time spend in upper part at 0.5 to 1 uM preadministered with reserpine for 40 mins followed by compound administration and measured after 7 days by novel tank test; assay type: functional, organism-based; conditions: dose 0.5-1 µM, time 7.0 day
[7] = system: Danio rerio; test: Antidepressant activity in reserpine-induced depressive zebrafish model assessed as increase in total distance traveled at 0.5 to 1 uM preadministered with reserpine for 40 mins followed by compound administration and measured after 7 days by open field test; assay type: functional, organism-based; conditions: dose 0.5-1 µM, time 7.0 day
[8] = Toxicity in C57 mouse assessed as effect in spleen pathology at 5 to 10 mg/kg administered continuously for 2 weeks by H and E staining based analysis; assay type: organism-based; conditions: in vivo, 336 h, dose 5-10 mg/kg
[9] = Toxicity in C57 mouse assessed as effect on heart size at 5 to 10 mg/kg administered continuously for 2 weeks by H and E staining based analysis; assay type: organism-based; conditions: in vivo, 336 h, dose 5-10 mg/kg
[10] = system: Mus musculus; test: Antidepressant activity in chronic unpredictable mild stress induced depressive C57 mouse model assessed as decrease in SERT expression in brain at 5 to 10 mg/kg administered continuously for 2 weeks post 5 weeks of chronic unpredictable mild stress by Western blot analysis; assay type: functional, organism-based; conditions: dose 5-10 mg/kg
[11] = Toxicity in C57 mouse assessed as effect on spleen structure at 5 to 10 mg/kg administered continuously for 2 weeks by H and E staining based analysis; assay type: organism-based; conditions: in vivo, 336 h, dose 5-10 mg/kg
[12] = system: Mus musculus; test: Antidepressant activity in chronic unpredictable mild stress induced depressive C57 mouse model assessed as reduction in resting time at 5 to 10 mg/kg administered continuously for 2 weeks post 5 weeks of chronic unpredictable mild stress by tail suspension test; assay type: functional, organism-based; conditions: dose 5-10 mg/kg
[13] = system: Danio rerio; test: Antidepressant activity in reserpine-induced depressive zebrafish model assessed as increase in total distance traveled at 0.5 to 1 uM preadministered with reserpine for 40 mins followed by compound administration and measured after 7 days by novel tank test; assay type: functional, organism-based; conditions: dose 0.5-1 µM, time 7.0 day
[14] = Toxicity in C57 mouse assessed as effect on liver size at 5 to 10 mg/kg administered continuously for 2 weeks by H and E staining based analysis; assay type: organism-based; conditions: in vivo, 336 h, dose 5-10 mg/kg
[15] = system: Mus musculus; test: Antidepressant activity in chronic unpredictable mild stress induced depressive C57 mouse model assessed as reduction in fecal count at 5 to 10 mg/kg administered continuously for 2 weeks post 5 weeks of chronic unpredictable mild stress; assay type: functional, organism-based; conditions: dose 5-10 mg/kg
[16] = Toxicity in C57 mouse assessed as effect on heart morphology at 5 to 10 mg/kg administered continuously for 2 weeks by H and E staining based analysis; assay type: organism-based; conditions: in vivo, 336 h, dose 5-10 mg/kg
[17] = Toxicity in C57 mouse assessed as necrosis in liver at 5 to 10 mg/kg administered continuously for 2 weeks by H and E staining based analysis; assay type: organism-based; conditions: in vivo, 336 h, dose 5-10 mg/kg
[18] = Toxicity in C57 mouse assessed as effect on kidney structure at 5 to 10 mg/kg administered continuously for 2 weeks by H and E staining based analysis; assay type: organism-based; conditions: in vivo, 336 h, dose 5-10 mg/kg
[19] = Toxicity in C57 mouse assessed as effect on heart pathology at 5 to 10 mg/kg administered continuously for 2 weeks by H and E staining based analysis; assay type: organism-based; conditions: in vivo, 336 h, dose 5-10 mg/kg
[20] = Toxicity in C57 mouse assessed as effect on spleen morphology at 5 to 10 mg/kg administered continuously for 2 weeks by H and E staining based analysis; assay type: organism-based; conditions: in vivo, 336 h, dose 5-10 mg/kg
[21] = system: Danio rerio; test: Antidepressant activity in reserpine-induced depressive zebrafish model assessed as reduction in immobility time at 0.5 to 1 uM preadministered with reserpine for 40 mins followed by compound administration and measured after 7 days by open field test; assay type: functional, organism-based; conditions: dose 0.5-1 µM, time 7.0 day
[22] = system: Mus musculus; test: Antidepressant activity in chronic unpredictable mild stress induced depressive C57 mouse model assessed as increase in movement at 5 to 10 mg/kg administered continuously for 2 weeks post 5 weeks of chronic unpredictable mild stress by open field test; assay type: functional, organism-based; conditions: dose 5-10 mg/kg
[23] = system: Mus musculus; test: Antidepressant activity in chronic unpredictable mild stress induced depressive C57 mouse model assessed as increase in nitric oxide content in brain at 5 to 10 mg/kg administered continuously for 2 weeks post 5 weeks of chronic unpredictable mild stress by absorbance based analysis; assay type: functional, organism-based; conditions: dose 5-10 mg/kg
[24] = system: Mus musculus; test: Antidepressant activity in chronic unpredictable mild stress induced depressive C57 mouse model assessed as reduction in resting time at 5 to 10 mg/kg administered continuously for 2 weeks post 5 weeks of chronic unpredictable mild stress by forced swimming test; assay type: functional, organism-based; conditions: dose 5-10 mg/kg
[25] = system: Danio rerio; test: Antidepressant activity in reserpine-induced depressive zebrafish model assessed as increase in speed of movement at 0.5 to 1 uM preadministered with reserpine for 40 mins followed by compound administration and measured after 7 days by open field test; assay type: functional, organism-based; conditions: dose 0.5-1 µM, time 7.0 day
[26] = Toxicity in C57 mouse assessed as necrosis in lungs at 5 to 10 mg/kg administered continuously for 2 weeks by H and E staining based analysis; assay type: organism-based; conditions: in vivo, 336 h, dose 5-10 mg/kg
[27] = system: Mus musculus; test: Antidepressant activity in chronic unpredictable mild stress induced depressive C57 mouse model assessed as increase in total distance traveled at 5 to 10 mg/kg administered continuously for 2 weeks post 5 weeks of chronic unpredictable mild stress by open field test; assay type: functional, organism-based; conditions: dose 5-10 mg/kg
[28] = Cytotoxicity against human SH-SY5Y cells incubated for 24 hrs by MTT assay; assay type: toxicity, cell-based
[29] = Toxicity in C57 mouse assessed as necrosis in kidney at 5 to 10 mg/kg administered continuously for 2 weeks by H and E staining based analysis; assay type: organism-based; conditions: in vivo, 336 h, dose 5-10 mg/kg
[30] = Toxicity in C57 mouse assessed as effect on lung structure at 5 to 10 mg/kg administered continuously for 2 weeks by H and E staining based analysis; assay type: organism-based; conditions: in vivo, 336 h, dose 5-10 mg/kg
[31] = Toxicity in C57 mouse assessed as effect on kidney morphology at 5 to 10 mg/kg administered continuously for 2 weeks by H and E staining based analysis; assay type: organism-based; conditions: in vivo, 336 h, dose 5-10 mg/kg
[32] = system: Mus musculus; test: Antidepressant activity in reserpine induced depressive mouse model assessed as 5-HT level in brain at 10 mg/kg preadministered with reserpine for 3 days followed by compound addition from day 4 to 10 by LC-MS analysis (reference value: 186.46 ng/ml); assay type: functional; conditions: time 7 day
[33] = system: PC-12; test: Neuroprotective activity against corticosterone-induced cell injury in rat PC-12 cells assessed as increase in nitric oxide content at 0.2 uM by absorbance based assay; assay type: functional
[34] = Cytotoxicity against human L02 cells incubated for 24 hrs by MTT assay; assay type: toxicity, cell-based
[35] = system: Mus musculus; test: Antidepressant activity in chronic unpredictable mild stress induced depressive C57 mouse model assessed as reduction in MAO-A activity in brain at 5 to 10 mg/kg administered continuously for 2 weeks post 5 weeks of chronic unpredictable mild stress by colorimetric analysis; assay type: functional, organism-based; conditions: dose 5-10 mg/kg

O=C1c2ccccc2-c2nccc3cc(OCCCO[N+](=O)[O-])cc1c23
Activity [1]: Non-Toxic
Activity [2]: Active
Activity [3]: Active
Activity [4]: Active
Activity [5]: Active
Activity [6]: Active
Activity [7]: Active
Activity [8]: Non-Toxic
Activity [9]: Non-Toxic
Activity [10]: Active
Activity [11]: Non-Toxic
Activity [12]: Active
Activity [13]: Active
Activity [14]: Non-Toxic
Activity [15]: Active
Activity [16]: Non-Toxic
Activity [17]: Non-Toxic
Activity [18]: Non-Toxic
Activity [19]: Non-Toxic
Activity [20]: Non-Toxic
Activity [21]: Active
Activity [22]: Active
Activity [23]: Active
Activity [24]: Active
Activity [25]: Active
Activity [26]: Non-Toxic
Activity [27]: Active
IC50 at 24 h [28]: > 100 µM
Activity [29]: Non-Toxic
Activity [30]: Non-Toxic
Activity [31]: Non-Toxic
Activity [32]: 643.87 ng/mL
Activity [33]: Active
IC50 at 24 h [34]: > 100 µM
Activity [35]: Active

Reference: ChEMBL document CHEMBL5584347, “Development of Nitric Oxide Releasing Oxoisoaporphines with Antidepressant Activities by Simultaneously Regulating MAO-A and SERT” (J Med Chem, 2024)
